The source of these data is patent publication US20180000085A1, “USE OF PICOLINAMIDE COMPOUNDS WITH FUNGICIDAL ACTIVITY” (DOW AGROSCIENCES LLC, priority 2014, published 2018).

One assay deals with Puccinia triticina. Put plainly: Wheat brown rust (PUCCRT) disease control on wheat seedlings. It counts as in vivo. Set-up: key to PUCCRT 3DC, HV activity at 100 ppm (% control rating) / PUCCRT disease control, 3DC / PUCCRT 1DP disease control rating, HV activity / PUCCRT 3DC disease control rating, HV activity / PUCCRT 3DC, LV activity at 125.1 g/H (% Control rating) / PUCCRT 1DP, LV activity at 125.1 g/H (% Control rating) / PUCCRT 3DC disease control rating, LV activity at 125.1 g/H / PUCCRT 1DP disease control rating, LV activity at 125.1 g/H / PUCCRT 3DC disease control rating, HV activity at 100 ppm / PUCCRT 1DP disease control rating, HV activity at 100 ppm / HV activity at 100 ppm PUCCRT 3DC (disease control rating) / LV activity at 125.1 g/H PUCCRT 1DP (disease control rating) / LV activity at 125.1 g/H PUCCRT 3DC (disease control rating): A: > 80; B: ≤ 80; C: Not Tested; D: No Activity Observed in the Reported Assay. The following applies: for PUCCRT 1DP disease control rating, HV activity / PUCCRT 3DC disease control rating, HV activity: HV application at 100 ppm.

Another assay has as its system Zymoseptoria tritici. Kind of assay: Leaf blotch of wheat (SEPTTR) disease control on wheat seedlings. On the set-up: key to SEPTTR 1DP, HV activity at 100 ppm (% control rating) / SEPTTR 3DC, HV activity at 100 ppm (% control rating) / SEPTTR disease control, 1DP / SEPTTR disease control, 3DC / SEPTTR 1DP disease control rating, HV activity / SEPTTR 3DC disease control rating, HV activity / SEPTTR 3DC, LV activity at 125.1 g/H (% Control rating) / SEPTTR 1DP, LV activity at 125.1 g/H (% Control rating) / SEPTTR 1DP disease control rating, LV activity at 125.1 g/H / SEPTTR 3DC disease control rating, LV activity at 125.1 g/H / SEPTTR 3DC disease control rating, HV activity at 100 ppm / SEPTTR 1DP disease control rating, HV activity at 100 ppm / HV activity at 100 ppm SEPTTR 3DC (disease control rating) / HV activity at 100 ppm SEPTTR 1DP (disease control rating) / LV activity at 125.1 g/H SEPTTR 1DP (disease control rating) / LV activity at 125.1 g/H SEPTTR 3DC (disease control rating): A: > 80; B: ≤ 80; C: Not Tested; D: No Activity Observed in the Reported Assay. It counts as in vivo. The following applies: for SEPTTR 1DP disease control rating, HV activity / SEPTTR 3DC disease control rating, HV activity: HV application at 100 ppm.

Where [1] appears, read: 1 Day Protectant, wheat brown rust.
The mark [2] stands for this setting: 3 Day Curative, wheat brown rust.
Where [3] appears, read: 1 Day Protectant, wheat leaf blotch.
[4] abbreviates: 3 Day Curative, wheat leaf blotch.
The mark [5] stands for this setting: low volume application, 125.1 g/H, 1 Day Protectant.
[6] abbreviates: low volume application, 125.1 g/H, 3 Day Curative.
[7] abbreviates: low volume application, 125.1 g/H, 1 Day Protectant, wheat brown rust.
Setting [8] is: low volume application, 125.1 g/H, 3 Day Curative, wheat brown rust.
Setting [9] is: low volume application, 125.1 g/H, 1 Day Protectant, wheat leaf blotch.
[10] abbreviates: low volume application, 125.1 g/H, 3 Day Curative, wheat leaf blotch.
Setting [11] is: low volume application, 125.1 g/H, 1 day protectant.
[12] abbreviates: low volume application, 125.1 g/H, 3 day curative.
The mark [13] stands for this setting: HV activity at 100 ppm, 1 Day Protectant, wheat.
Where [14] appears, read: HV activity at 100 ppm, 3 Day Curative, wheat.
[15] abbreviates: high volume application, 100 ppm, 1DP.
[16] abbreviates: high volume application, 100 ppm, 3DC.

Regarding `C=CC[C@@H](OCc1ccccc1)[C@H](C)OC(=O)[C@H](C)NC(=O)c1nccc(OC)c1O` [Cmpd 333, (S)-(2S,3R)-3-(benzyloxy)hex-5-en-2-yl-2-(3-hydroxy-4-methoxypicolinamido)propanoate], the “PUCCRT 1DP disease control rating, HV activity” value in the assay with Puccinia triticina (setting [1]) is listed as “A (> 80)”. Besides, in the assay on Puccinia triticina (setting [2]), the “PUCCRT 3DC disease control rating, HV activity” value is listed as “A (> 80)”. Further, in the assay on Zymoseptoria tritici (setting [3]), the “SEPTTR 1DP disease control rating, HV activity” value is “B (≤ 80)”. In addition, in the assay with Zymoseptoria tritici (setting [4]), the “SEPTTR 3DC disease control rating, HV activity” value is listed as “B (≤ 80)”.
With `COc1ccnc(C(=O)N[C@@H](C)C(=O)O[C@@H](C)[C@H](Oc2ccc(Cl)cc2Cl)C(C)C)c1O` [Cmpd 358], the “PUCCRT 1DP disease control rating, HV activity” value in the assay on Puccinia triticina (setting [1]) was “B (≤ 80)”. In addition, the “PUCCRT 3DC disease control rating, HV activity” value in the assay with Puccinia triticina (setting [2]) is given as “B (≤ 80)”. Besides, in the assay on Zymoseptoria tritici (setting [3]), the “SEPTTR 1DP disease control rating, HV activity” value is “B (≤ 80)”. The “SEPTTR 3DC disease control rating, HV activity” value in the assay on Zymoseptoria tritici (setting [4]) is “B (≤ 80)”.
In the case of `CCCO[C@@H]([C@H](C)OC(=O)[C@H](C)NC(=O)c1nccc(OC)c1OCOC(C)=O)[C@H](CC)Oc1ccccc1` [Cmpd 510], the “PUCCRT 1DP, LV activity at 125.1 g/H (% Control rating)” value in the assay on Puccinia triticina (setting [5]) is “A (> 80)”. Besides, the “PUCCRT 3DC, LV activity at 125.1 g/H (% Control rating)” value in the assay with Puccinia triticina (setting [6]) is on record as “A (> 80)”. Besides, the “SEPTTR 1DP, LV activity at 125.1 g/H (% Control rating)” value in the assay on Zymoseptoria tritici (setting [5]) is on record as “A (> 80)”. In the assay with Zymoseptoria tritici (setting [6]), the “SEPTTR 3DC, LV activity at 125.1 g/H (% Control rating)” value was “B (≤ 80)”.
Turning to `CC(C)C[C@@H](Oc1cccc(F)c1)[C@H](C)OC(=O)[C@H](C)NC(=O)c1ncccc1O` [Cmpd 1035], in the assay on Puccinia triticina (HV application, 100 ppm, 1 Day Protectant, wheat brown rust), the “HV activity at 100 ppm PUCCRT 1DP (disease control rating)” value is “A (> 80)”. Also, the “HV activity at 100 ppm PUCCRT 3DC (disease control rating)” value in the assay on Puccinia triticina (HV application, 100 ppm, 3 Day Curative, wheat brown rust) is “A (> 80)”. For the same molecule, the “HV activity at 100 ppm SEPTTR 1DP (disease control rating)” value in the assay on Zymoseptoria tritici (HV application, 100 ppm, 1 Day Protectant, wheat leaf blotch) is given as “B (≤ 80)”. The “HV activity at 100 ppm SEPTTR 3DC (disease control rating)” value in the assay on Zymoseptoria tritici (HV application, 100 ppm, 3 Day Curative, wheat leaf blotch) is “D”.
`CCC[C@@H](Oc1ccc(C)cc1)[C@H](C)OC(=O)[C@H](C)NC(=O)c1nccc(OC)c1OC(C)=O` [Cmpd 1060]: the “LV activity at 125.1 g/H PUCCRT 1DP (disease control rating)” value in the assay on Puccinia triticina (setting [7]) is “A (> 80)”. The “LV activity at 125.1 g/H PUCCRT 3DC (disease control rating)” value in the assay with Puccinia triticina (setting [8]) is reported as “A (> 80)”. The “LV activity at 125.1 g/H SEPTTR 1DP (disease control rating)” value in the assay with Zymoseptoria tritici (setting [9]) is listed as “B (≤ 80)”. For the same molecule, the “LV activity at 125.1 g/H SEPTTR 3DC (disease control rating)” value with Zymoseptoria tritici (setting [10]) is listed as “B (≤ 80)”.
In the case of `COc1ccnc(C(=O)NC(C)C(=O)OC(C(C)C)C(Oc2ccccc2)C(C)C)c1OCOC(C)=O` (centres unmarked) [Cmpd 1088], the “LV activity at 125.1 g/H PUCCRT 1DP (disease control rating)” value with Puccinia triticina (setting [7]) is recorded as “B (≤ 80)”. The “LV activity at 125.1 g/H PUCCRT 3DC (disease control rating)” value in the assay on Puccinia triticina (setting [8]) is listed as “D”. In addition, the “LV activity at 125.1 g/H SEPTTR 1DP (disease control rating)” value in the assay with Zymoseptoria tritici (setting [9]) is given as “D”. The “LV activity at 125.1 g/H SEPTTR 3DC (disease control rating)” value in the assay with Zymoseptoria tritici (setting [10]) was “D”.
Consider `CCC(CC)[C@@H](Oc1cccc(Cl)c1)[C@H](C)OC(=O)[C@@H](NC(=O)c1nccc(OC)c1OC(C)=O)C(C)C` [Cmpd 658], for which the “PUCCRT 1DP disease control rating, LV activity at 125.1 g/H” value with Puccinia triticina (setting [11]) is “A (> 80)”. In the assay with Puccinia triticina (setting [12]), the “PUCCRT 3DC disease control rating, LV activity at 125.1 g/H” value is given as “B (≤ 80)”. In addition, the “SEPTTR 1DP disease control rating, LV activity at 125.1 g/H” value in the assay on Zymoseptoria tritici (setting [11]) was “D”. Besides, in the assay with Zymoseptoria tritici (setting [12]), the “SEPTTR 3DC disease control rating, LV activity at 125.1 g/H” value is “B (≤ 80)”.
As for `CCCOC(CC)C(Oc1ccccc1)C(C)OC(=O)C(C)NC(=O)c1nccc(OC)c1O` (centres unmarked) [Cmpd 289], in the assay on Puccinia triticina (setting [13]), the “PUCCRT disease control, 1DP” value is reported as “A (> 80)”. For the same molecule, the “PUCCRT disease control, 3DC” value with Puccinia triticina (setting [14]) is reported as “A (> 80)”. The “PUCCRT 1DP disease control rating, HV activity” value with Puccinia triticina (setting [1]) is “A (> 80)”. Further, in the assay with Puccinia triticina (setting [2]), the “PUCCRT 3DC disease control rating, HV activity” value is “A (> 80)”. Besides, the “PUCCRT 1DP, HV activity at 100 ppm (% control rating)” value with Puccinia triticina (setting [15]) was “A (> 80)”. In addition, in the assay with Puccinia triticina (setting [16]), the “PUCCRT 3DC, HV activity at 100 ppm (% control rating)” value is recorded as “A (> 80)”. Besides, the “SEPTTR disease control, 1DP” value with Zymoseptoria tritici (setting [13]) was “B (≤ 80)”. In the assay on Zymoseptoria tritici (setting [14]), the “SEPTTR disease control, 3DC” value is listed as “A (> 80)”. Further, the “SEPTTR 1DP disease control rating, HV activity” value in the assay with Zymoseptoria tritici (setting [3]) is on record as “B (≤ 80)”. For the same molecule, the “SEPTTR 3DC disease control rating, HV activity” value with Zymoseptoria tritici (setting [4]) is on record as “A (> 80)”. Further, in the assay on Zymoseptoria tritici (setting [15]), the “SEPTTR 1DP, HV activity at 100 ppm (% control rating)” value is “B (≤ 80)”. Also, in the assay with Zymoseptoria tritici (setting [16]), the “SEPTTR 3DC, HV activity at 100 ppm (% control rating)” value is “A (> 80)”.
With `COc1ccnc(C(=O)N[C@@H](C)C(=O)O[C@@H](C)[C@H](Oc2ccccc2)C2CCCC2)c1O` [Cmpd 356], the “PUCCRT 1DP disease control rating, HV activity” value in the assay on Puccinia triticina (setting [1]) is “A (> 80)”. Besides, the “PUCCRT 3DC disease control rating, HV activity” value with Puccinia triticina (setting [2]) is “A (> 80)”. In the assay on Zymoseptoria tritici (setting [3]), the “SEPTTR 1DP disease control rating, HV activity” value is on record as “A (> 80)”. In addition, the “SEPTTR 3DC disease control rating, HV activity” value with Zymoseptoria tritici (setting [4]) is “B (≤ 80)”.
